How the values were obtained:
neural progenitors [1] = test: BrdU cell proliferation assay in dissociated neurospheres; format: cell-based, mouse; conditions: for number of BrdU-incorporating cells: 30 nM, 16 hours, FIG. 3D; for effect on HU-308 induction of cell proliferation: PD98059 10 μM, LY294,002 5 μM, with HU-308 30 nM, FIG. 3E, confirmed in neurosphere generation assays
Protocol: These studies involve the use of bromodeoxyuridine (BrdU), a thymidine analog incorporated into DNA during the S phase of the cell cycle, which allows visualizing cell proliferation. Neural progenitor proliferation was determined by quantifying BrdU-positive cells 16 hours after incubation with 10 μg/ml BrdU, followed by immunostaining [Aguado, T. et al., FASEB J. 19, 1704-6, 2005].
Results are expressed as percentage of BrdU-positive cells over total cells.

neural progenitors [2] = test: Neurosphere generation and self-renewal of neural progenitors; format: cell-based, mouse; conditions: for neurosphere generation in CB2-deficient neural progenitors / primary neurosphere generation / neural progenitor self-renewal: 30 nM; for primary neurosphere generation: wild-type E17.5 progenitors, 7 days; for neural progenitor self-renewal: wild-type progenitors, 5 consecutive passages, FIG. 3C
Protocol: Multipotent self-renewing progenitors were obtained from the dissected cortices of mice at the indicated developmental stages and grown in chemically-defined medium constituted by Dulbecco's modified Eagle's and F12 media supplemented with N2 (Invitrogen), 0.6% glucose, non-essential amino acids, 50 mM Hepes, 2 μg/ml heparin, 20 ng/ml epidermal growth factor and 20 ng/ml basic fibroblast growth factor [Aguado, T. et al., J. Neurosci. 26, 1551-61, 2006]. Clonal neurospheres were cultured at 1000 cells/ml, dissociated with accutase (Sigma-Aldrich, Missouri, USA) and experiments were carried out with early (up to 10) passage neurospheres. Neurosphere generation experiments were performed in 96-well dishes with 100 μl of medium, and the number of neurospheres was quantified at predetermined time points by phase-contrast microscopy. Embryonic neural progenitors from wild-type and CB2-deficient mice were cultured (10,000 cells/ml) in the continuous presence of cannabinoids or controls for the indicated number of passages (one passage every 4 days).
Adult neural progenitors were obtained from hippocampi of 4-month-old adult mice and cultured as described above. Neural progenitor cell differentiation was performed as described.

human CB1 receptors = human CB1 receptors (Homo sapiens, UniProt P21554); conditions: read-out: IC50 for binding to human CB1 receptors; as disclosed in WO 03/064359; cited from earlier work
Sequence of human CB1 receptors (P21554 whole entry): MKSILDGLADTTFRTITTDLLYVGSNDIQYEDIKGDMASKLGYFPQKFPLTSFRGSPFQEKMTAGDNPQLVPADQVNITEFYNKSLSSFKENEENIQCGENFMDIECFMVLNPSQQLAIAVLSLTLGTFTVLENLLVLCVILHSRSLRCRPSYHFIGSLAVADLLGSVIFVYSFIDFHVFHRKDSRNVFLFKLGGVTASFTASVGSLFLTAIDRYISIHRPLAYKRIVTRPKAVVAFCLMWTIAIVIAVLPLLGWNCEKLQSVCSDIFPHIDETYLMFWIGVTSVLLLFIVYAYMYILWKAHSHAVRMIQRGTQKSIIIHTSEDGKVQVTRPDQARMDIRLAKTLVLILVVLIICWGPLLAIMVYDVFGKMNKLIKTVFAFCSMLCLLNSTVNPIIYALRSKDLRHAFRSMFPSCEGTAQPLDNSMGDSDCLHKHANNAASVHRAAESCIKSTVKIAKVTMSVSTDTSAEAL

ERK and Akt = ERK and Akt phosphorylation in neural progenitors (Western blot); format: cell-based, mouse; conditions: FIG. 3F
Protocol: Identical protein amounts of cleared cell extracts were subjected to SDS-PAGE, transferred to PVDF membranes, and following antibody incubations developed with enhanced chemiluminiscence detection kit [Aguado, T. et al., FASEB J. 19, 1704-6, 2005]. Loading controls were performed with an anti-α-tubulin antibody.

substantia nigra = conditions: mice treated with the neurotoxin MPTP; cited from earlier work
[3] = system: neural progenitor cell proliferation in the dentate gyrus; test: In vivo hippocampal neural progenitor proliferation (BrdU-positive cells in dentate gyrus); set-up: species or system mouse; conditions: FIG. 4B; for hippocampal progenitor proliferation in vivo: wild-type adult mice, i.p. 5 consecutive days, HU-308 15 mg/kg, SR144528 1 mg/kg
Protocol: Adult CB2 receptor knock-out male mice (8-week old) and their respective wild-type littermates were injected i.p. with 50 mg/kg BrdU daily for 3 days, and perfused 1 day later. […] Control animals received the corresponding vehicle injection (100 μl PBS supplemented with 0.5 mg defatted bovine serum albumin and 4% dimethylsulfoxide). BrdU was administered daily during the pharmacological administration period. In the case of experiments on kainate-induced excitotoxicity, animals were injected with 15 mg/kg kainate or vehicle. E17.5 mouse embryos from mothers injected twice with 100 mg/kg BrdU (30-min interval between injections) were obtained 1 h after the first injection.
At the end of the study, animals were euthanized and their brains were fixed into 4% paraformaldehyde in PBS until further analysis.
Mice were perfused and immunostaining was performed in 30-μm brain coronal free-floating sections [Rueda, D. et al., J. Biol. Chem. 277, 4645-50, 2002]. Sections were incubated with polyclonal anti-CB2 antibody together with anti-nestin, anti-Neu, or anti-GFAP antibodies followed by secondary staining for rabbit and mouse IgGs with highly cross-adsorbed AlexaFluor 594 and AlexaFluor 488 secondary antibodies (Molecular Probes), respectively. Neural progenitor proliferation was determined with anti-BrdU antibody and secondary anti-rat IgG-AlexaFluor 594 in sections counterstained with TOTO-3 iodide. Preparations were examined using Leica software and SP2 AOBS microscope with 2 passes with a Kalman filter and a 1024×1024 collection box. BrdU^+ cells were counted in the subgranular zone and granule cell layer of the dentate gyrus. A 1-in-6 series of adult hippocampal mouse sections located between 1.3 and 2.1 mm posterior to bregma were employed. […] Frozen mouse embryo sections were incubated with anti-BrdU antibody together with Yoyo-1 iodide, and positive cells were determined in 7 sections per animal.
Results are expressed as number of BrdU positive cells per section in the dentate gyrus of the animals.

basal ganglia = conditions: cited from earlier work
newborn neurons = conditions: chronic administration, Jiang et al. 2005; cited from earlier work
[4] = system: embryonic hippocampal neural progenitor cells; conditions: Jiang et al. 2005; cited from earlier work
cannabinoid receptors = conditions: cited from earlier work

CCCCCCC(C)(C)c1cc(OC)c(C2C=C(CO)C3CC2C3(C)C)c(OC)c1 (single isomer, unassigned; (+)) [HU-308, (+) {4-[4-(1,1-dimethylheptyl)-2,6-dimethoxyphenyl]-6,6-dimethyl-bicyclo[3.1.1]hept-2-en-2-yl}-methanol]
number of BrdU-incorporating cells (neural progenitors [1]): increased the number of BrdU-incorporating cells in a CB2-dependent manner | neurosphere generation in CB2-deficient neural progenitors (neural progenitors [2]; FIG. 3B): neither HU-308 nor JWH-133 was able to enhance neurosphere generation | primary neurosphere generation (neural progenitors [2]; FIG. 3B): increased | neural progenitor self-renewal (neural progenitors [2]): increased | IC50 (human CB1 receptors): 3.6 µM | ERK and Akt phosphorylation (ERK and Akt; 15 min (ERK) or 2 min (Akt)): stimulated ERK and Akt | extent of cell death in the substantia nigra (substantia nigra): reduces the extent of cell death | hippocampal progenitor proliferation in CB2-deficient mice ([3]; CB2-/- adult mice, 15 mg/kg i.p. 5 days): lack of HU-308 agonistic effect | hippocampal progenitor proliferation in vivo [3]: increased progenitor proliferation | GABA level and dopamine transmission in the non-lesioned side (basal ganglia; non-lesioned side): did not alter the parameters monitored | extent of cell death in the basal ganglia (basal ganglia; rats, intrastriatal injection of malonate): reduces the extent of cell death

CCCCCCC(C)(C)c1cc(O)c2c(c1)OC(C)(C)[C@@H]1CC=C(CO)C[C@@H]21 [HU-210, 7-hydroxy-Δ^6-tetrahydrocannabinol-1,1-dimethyl-heptyl]
measures of anxiety- and depression-like behavior (newborn neurons): reduced measures of anxiety- and depression-like behavior | number of newborn neurons (newborn neurons): increased the number of newborn neurons | proliferation and differentiation of embryonic hippocampal neural progenitor cells [4]: promotes proliferation of said embryonic cells without affecting their differentiation

CCCCCCC(C)(C)c1cc(O)c2c(c1)OC(C)(C)[C@@H]1CC=C(CO)C[C@@H]21 [HU-211, 7-hydroxy-Δ^6-tetrahydrocannabinol-1,1-dimethyl-heptyl]
affinity to the cannabinoid receptors (cannabinoid receptors): low affinity

CCCC(C)(C)c1ccc2c(c1)OC(C)(C)[C@@H]1CC=C(C)C[C@@H]21 [JWH-133]
number of BrdU-incorporating cells (neural progenitors [1]): increased the number of BrdU-incorporating cells in a CB2-dependent manner | neurosphere generation in CB2-deficient neural progenitors (neural progenitors [2]; FIG. 3B): neither HU-308 nor JWH-133 was able to enhance neurosphere generation | percentage of neurosphere number relative to vehicle incubations (neural progenitors [2]; adult progenitors): 149±6% | percentage of neurosphere number relative to vehicle incubations (neural progenitors [2]; postnatal progenitors): 154±22% | primary neurosphere generation (neural progenitors [2]; FIG. 3B): increased | neural progenitor self-renewal (neural progenitors [2]): increased

O=c1cc(N2CCOCC2)oc2c(-c3ccccc3)cccc12 [LY294,002]
effect on HU-308 induction of cell proliferation (neural progenitors [1]): prevented by both inhibitors

COc1cccc(-c2cc(=O)c3ccccc3o2)c1N [PD98059]
effect on HU-308 induction of cell proliferation (neural progenitors [1]): prevented by both inhibitors

SR144528
effect on agonist-increased primary neurosphere generation and self-renewal (neural progenitors [2]; 2 μM with HU-308 or JWH-133 30 nM, FIG. 3B, 3C): both actions were prevented | effect on agonist-increased neurosphere generation in postnatal and adult progenitors (neural progenitors [2]; data not shown): this action was prevented | effect on HU-308 stimulation of ERK and Akt (ERK and Akt): this action was prevented | hippocampal progenitor proliferation in vivo [3]: exerted the opposite action
